According to patent US9375456B2, “Antiviral composition containing an Aleurites fordii or Daphne kiusiana extract or a fraction thereof as an active ingredient” (priority 2009, dated 2016):

Test system: NK92 cells
Test: Dependence of Aleurites fordii extract-induced IFN-γ production on NF-κB/PKC signaling
Type: cell-based, human
Conditions: NK92 cells treated with inhibitor along with Aleurites fordii extract, FIG. 9

SMILES: CC(=O)c1c(O)c(C)c(O)c(Cc2c(O)c3c(c(C(=O)/C=C/c4ccccc4)c2O)OC(C)(C)C=C3)c1O [rotterin]
- induction of IFN-γ production by the Aleurites fordii extract: reduced
